These results are taken from patent US8729103B2, “Silent desensitizers of neuronal nAChR and methods of use thereof” (priority 2008, dated 2014).

Data set [1] can be described thus: stability of the isolated HCl salt on exposure to air. To be noted: white solid, larger scale. Type of data set: physicochemical. An excerpt: A gram-scale synthesis of sazetidine A is outlined in FIG. 1a. The Boc-protected azidityl methyl alcohol 2 and 3-bromo-5-hydroxy pyridine (3) are both commercially available. Treatment with PPh3 and DEAD according to the Mitsunobu protocol formed ether derivative 4 in 70% yield. Palladium-mediated coupling of the bromo-substituted pyridine 4 with 5-hexyn-1-ol under modified Sonogashira conditions furnished Boc-protected sazetidine A in 73% yield. Deprotection of the Boc-group with HCl was expected to give sazetidine A in salt form as published in the literature.

In data set [2] the target is T1, α4β2 nAChRs (Homo sapiens, UniProt P17787+P43681).
T1 construct: expressed in transfected cells; host or cells: SH-EP1 (SH-EP1-pcDNA-hα4β2)
The following applies: added alone; cited from earlier work.

For data set [3] the following is noted: in vivo; cited from earlier work.
The target of data set [4] is T2, α4β2 nAChRs (Rattus norvegicus, UniProt P09483+P12390).
T2 construct: expressed in transfected cells; host or cells: HEK293 (KXα4β2)
In words: [3H]epibatidine competition binding, α4β2 nAChR. To be noted: triazole in place of alkyne. How it is done: The cell lines KXα3β4R2, expressing rat α3β4 nAChRs, and KXα4β2, expressing rat α4β2 nAChRs, were established previously by stably transfecting human embryonic kidney 293 cells with combinations of rat nAChR subunit genes. These cell lines are maintained in minimum essential medium supplemented with 10% fetal bovine serum, 100 units/mL penicillin G, […] streptomycin, and 0.7 mg/mL G418 (Geneticin) at 37° C. with 5% CO2 in a humidified incubator. The cell line SH-EP1-pcDNA-hα4β2, expressing human α4β2 nAChRs, was described previously and are available. […]
The Ki values of compounds for binding to α3β4, α4β2 and other nAChR sub-types will be measured by competition experiments with [3H]epibatidine or other labeled ligands. […]
In brief, cultured cells at above about 80% confluence will be removed from their flasks (80 cm^2) with a disposable cell scraper and will be placed in 10 mL of 50 mM Tris-HCl buffer, pH 7.4, 4° C. […] Nonspecific binding will be assessed in parallel incubations in the presence of 300 μM nicotine. […] The filter-retained radioactivity will be measured by liquid scintillation counting. […] Data from saturation and competition binding assays will be analyzed using Prism 4 (GraphPad Software, San Diego, Calif.).

Molecules are shown by their SMILES.

Turning to `OCCCCC#Cc1cncc(OCC2CCN2)c1` (stereo not shown) [sazetidine A], the “stability of the HCl salt on exposure to air” value in data set [1] is reported as “immediately resulted in decomposition”. Further, in data set [2], the “agonist activity at α4β2 nAChRs” value is listed as “only low agonist activity”. Turning to `Clc1ccc(C2CC3CCC2N3)cn1` (stereo not shown) [Epibatidine], the “analgesic potency relative to morphine” value in data set [3] is given as roughly 200 times.

For the compound `OCCCCc1cn(-c2cncc(OCC3CCN3)c2)nn1` (stereo not shown) [triazetidine O], in data set [4], the “decrease in Ki relative to sazetidine A” value is “approximately 10 fold”.
